Tests used:
HIV-2 infected CEM cells = assay: Effect of glucosidase inhibitor on production of viral proteins in HIV-2 infected cells; assay type: cell-based; details: castanospermine 1 mM, 16 hr [35S] methionine labeling, culture supernatants
Method: To confirm that gp80 was produced during the processing of envelope precursor, HIV-2 infected cells were labeled with [^35S] methionine in the absence or presence of the glucosidase inhibitor, castanospermine (Saul et al., 1983). Culture supernatants were then assayed by immunoprecipitation using an HIV-2 positive patient serum which recognizes several viral proteins.

HIV-2 infected cells [1] = details: in the presence of monensin; previous study (Rey et al., 1989); cited from earlier work
[2] = biological target: T1, binding of mAb 1H8 to gp80 (Human immunodeficiency virus type 2 subtype A, UniProt P04577); assay: Peptide blocking of antibody signals in Western blot of HIV-2 virus pellet; details: 1 μg/ml of peptide p39′
T1 construct: cleaved by the cellular protease to give the extracellular glycoprotein gp125 and the transmembrane glycoprotein dimer gp80; endogenous in cells; host or cells: virus pellet from culture medium of HIV-2 infected CEM cells
T1 sequence (P04577 512-858 limits assumed): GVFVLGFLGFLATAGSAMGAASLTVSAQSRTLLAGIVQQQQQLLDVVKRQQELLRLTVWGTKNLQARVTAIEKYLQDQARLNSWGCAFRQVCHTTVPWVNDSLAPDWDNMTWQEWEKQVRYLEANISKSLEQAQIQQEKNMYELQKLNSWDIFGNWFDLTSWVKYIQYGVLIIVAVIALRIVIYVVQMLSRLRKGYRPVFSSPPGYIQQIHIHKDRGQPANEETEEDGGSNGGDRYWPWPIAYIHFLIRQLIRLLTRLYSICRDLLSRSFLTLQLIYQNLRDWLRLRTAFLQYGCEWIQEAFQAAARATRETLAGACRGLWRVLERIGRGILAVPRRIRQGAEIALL
Method: Extracts from the HIV-2 virus pellets were analyzed by Western blot assay using mAb 1H8 (section mAb) or anti-gp300 polyclonal antibodies (section S). Incubation with each antibody was carried out in the absence (lanes −) or presence (lanes +) of 10 μg of peptide p39′. The results of the autoradiography are shown.
To show the specificity of mAb 1H8 reactivity with gp80, a Western blot assay using extracts from HIV-2 virus pellet was carried out. After the transfer of proteins, nitrocellulose sheets were incubated with mAb 1H8 or anti-gp300 polyclonal antibodies in the absence or presence of 1 μg/ml of peptide p39′ (FIG. 5). […] In addition, a signal for gp36 was observed, but only after a prolonged exposure of the autoradiogram. […] These observations confirm that the reactivity of mAb 1H8 should be with the 26 amino acid residue corresponding to the amino acids 579 to 604 in the transmembrane glycoprotein of HIV-2. Consequently, a sequence corresponding to that of peptide p39′ should be present in gp80. The reactivity of anti-gp300 antibodies was not modified by peptide p39′. Therefore, these antibodies should interact with other epitopes than that corresponding to peptide 39′. […]

HIV-2 infected cells [3] = assay: Incorporation of labeled sugars into HIV-2 glycoproteins in infected cells; assay type: cell-based; details: [3H] glucosamine, fucose, mannose; data not shown
Description: Extracts from HIV-2 infected cells metabolically labeled with [^3H] glucosamine and [^3H] fucose were immunoprecipitated using mAb 1H8 and anti-gp300 polyclonal antibodies. In accord with the previous results (FIGS. 3-6), anti-gp300 antibodies immunoprecipitated sugar labeled gp300, gp140, gp125, and gp80, whereas mAb 1H8 immunoprecipitated gp300, gp140, and gp80. All these proteins incorporated [^3H] glucosamine, whereas incorporation of [^3H] fucose mainly occurred in gp125 and gp80 (FIG. 7a). In these experiments, the labeling of gp36 with [^3H] glucosamine was observed faintly after a prolonged exposure of the autoradiogram (data not shown; similar to FIG. 1, Rey et al., 1989). The glycoprotein gp80 also can incorporate [^3H] mannose as is the case for gp300, gp140, and gp125 (data not shown).
For metabolic labeling of proteins, infected cells were incubated for 16 hours at 37° C. in MEM culture without L-methionine and serum, but supplemented with 200 μCi/ml [^35S] methionine. For metabolic labeling of glycoproteins, infected cells were incubated for 16 hours at 37° C. in MEM culture medium lacking serum and glucose but supplemented with 200 μCi/ml ^3H-Fucose or 200 μCi/ml ^3H-glucosamine.

For `O[C@H]1[C@H](O)[C@@H](O)CN2CC[C@H](O)[C@H]12` [castanospermine], the “production of gp80 and gp125” value (HIV-2 infected CEM cells) was “markedly reduced” and the “production of the major core protein (p26)” value (HIV-2 infected CEM cells) was “not significantly affected”.
For `CC[C@@]1([C@@H]2O[C@@H]([C@H]3O[C@@](O)(CO)[C@H](C)C[C@@H]3C)C[C@@H]2C)CC[C@H]([C@]2(C)CC[C@]3(C[C@H](O)[C@@H](C)[C@@H]([C@@H](C)[C@@H](OC)[C@H](C)C(=O)O)O3)O2)O1` [monensin], the “135-kDa protein (gp135) in HIV-2 infected cells” value (HIV-2 infected cells [1]) is listed as “accumulated”.
In the case of “VTAIEKYLQDQARLNSWGCAFRQVCH [peptide p39′]”, the “effect of peptide on Western blot signals obtained with mAb 1H8” value [2] is reported as “completely abolished” and the “effect of peptide on reactivity of anti-gp300 antibodies” value [2] is reported as “not modified”.
For tunicamycin, the “incorporation of labeled sugars in gp80 and other glycoproteins” value (HIV-2 infected cells [3]) was “completely blocked”.

— patent US6608179B1, “Antibodies, that bind to HIV-2 transmembrane glycoprotein homodimer (gp 80)” (Institut Pasteur, priority 1988, dated 2003)
